# Measurements from patent US20240158385A1, “NOVEL COMPOUNDS” (Cerevance, Inc., priority 2021, published 2024).
# Target: T1, human KCNK13 (Homo sapiens, UniProt Q9HB14)
# T1 construct: expressed in transfected cells
# T1 sequence (Q9HB14 1-408): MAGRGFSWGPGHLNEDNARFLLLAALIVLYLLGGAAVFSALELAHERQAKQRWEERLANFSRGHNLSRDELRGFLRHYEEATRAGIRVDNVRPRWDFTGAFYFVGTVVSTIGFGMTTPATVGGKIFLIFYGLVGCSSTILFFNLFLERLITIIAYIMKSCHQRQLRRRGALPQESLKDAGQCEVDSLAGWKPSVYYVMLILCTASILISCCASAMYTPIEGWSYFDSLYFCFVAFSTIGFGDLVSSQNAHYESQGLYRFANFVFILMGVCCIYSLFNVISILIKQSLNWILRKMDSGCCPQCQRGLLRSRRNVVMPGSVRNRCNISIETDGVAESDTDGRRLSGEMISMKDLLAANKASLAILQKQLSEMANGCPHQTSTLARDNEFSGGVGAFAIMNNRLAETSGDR
# Assay: KCNK13 antagonist activity, thallium (Tl+) flux FLIPR assay
# Type: cell-based
# Conditions: HEK 293 cells stably expressing human KCNK13; Tl+ sensitive dye, FLIPR; compounds 15 minutes prior to thallium sulfate; 10 point half log curves from 10 PM; read-out: hKCNK13 IC50
# Description: KCNK13 antagonist activity was determined by measuring changes in intracellular Thallium (Tl^+) concentrations using a Tl^+ sensitive fluorescent dye. The changes in fluorescent signal were monitored by Fluorescent Imaging Plate Reader (FLIPR™) technology available from Molecular Devices, LLC, US. KCNK13 mediated increases in intracellular Tl+concentration were readily detected by addition of a thallium sulfate stimulus. 24 hours prior to the assay, human embryonic kidney 293 cells (HEK 293 cells) stably expressing human KCNK13 were seeded in cell culture medium in PDL coated black, clear-bottom 384-well plates (commercially available from Corning Inc., 356663) and grown overnight at 37° C., 5% CO2. On the day of the assay, cell culture media was removed and cells were loaded with potassium dye (commercially sold by Molecular Devices, LLC, US, R8222) for 1 hour at room temperature in the dark. Test compounds (at 10 point half log concentration response curves from […]) were added to cells for 15 minutes prior to the addition of thallium sulfate to all wells. The IC50 values were determined from ten point concentration response curves. Curves were generated using the average of two wells for each data point.
row,IC50,SMILES
1,< 5 µM,"CC(c1cccnc1)n1c(-c2nonc2N)nc2ccccc21 (racemic) [Example 85, rac-4-[1-[1-(pyridin-3-yl)ethyl]benzimidazol-2-yl]-1,2,5-oxadiazol-3-amine]"
2,< 0.05 µM,"Nc1nonc1-c1nc2ccc(F)cc2n1Cc1cncnc1 (single isomer, unassigned) [Example 4, 4-[6-fluoro-1-(pyrimidin-5-ylmethyl)benzimidazol-2-yl]-1,2,5-oxadiazol-3-amine]"
3,< 0.05 µM,"[2H]C([2H])(c1cccnc1)n1c(-c2nonc2C)nc2c(F)cccc21 (single isomer, unassigned) [Example 30, 3-[1-[dideuterio(pyridin-3-yl)methyl]-4-fluoro-benzimidazol-2-yl]-4-methyl-1,2,5-oxadiazole]"
4,< 0.05 µM,"Nc1nonc1-c1nc2c(F)cccc2n1Cc1cccnc1 (single isomer, unassigned) [Example 87, 4-[4-fluoro-1-(pyridin-3-ylmethyl)benzimidazol-2-yl]-1,2,5-oxadiazol-3-amine]"
5,< 0.05 µM,"Nc1nonc1-c1nc2ccc(F)cc2n1Cc1cccnc1 (single isomer, unassigned) [Example 118, 4-[6-fluoro-1-(pyridin-3-ylmethyl)benzimidazol-2-yl]-1,2,5-oxadiazol-3-amine]"
6,< 0.1 µM,"Nc1nonc1-c1nc2c(F)cccc2n1Cc1ccncc1 (single isomer, unassigned) [Example 121, 4-[4-fluoro-1-(pyridin-4-ylmethyl)benzimidazol-2-yl]-1,2,5-oxadiazol-3-amine]"
7,< 0.05 µM,"Cc1nsnc1-c1nc2c(F)cccc2n1Cc1cccnc1 (single isomer, unassigned) [Example 124, 3-[4-fluoro-1-(pyridin-3-ylmethyl)benzimidazol-2-yl]-4-methyl-1,2,5-thiadiazole]"
8,< 0.05 µM,"Cc1nsnc1-c1nc2cccc(F)c2n1Cc1cccnc1 (single isomer, unassigned) [Example 125, 3-[7-fluoro-1-(pyridin-3-ylmethyl)benzimidazol-2-yl]-4-methyl-1,2,5-thiadiazole]"
9,< 0.1 µM,"Nc1nonc1-c1nc2c(F)cccc2n1Cc1ccnnc1 (single isomer, unassigned) [Example 133, 4-(4-fluoro-1-(pyridazin-4-ylmethyl)-benzimidazol-2-yl)-1,2,5-oxadiazol-3-amine]"
10,< 0.2 µM,"Nc1nonc1-c1nc2c(F)cccc2n1Cc1ccncn1 (single isomer, unassigned) [Example 135, 4-(4-fluoro-1-(pyrimidin-4-ylmethyl)-benzimidazol-2-yl)-1,2,5-oxadiazol-3-amine]"
11,< 1 µM,"Cc1nonc1-c1nc2c(F)cccc2n1Cc1ccc(S(C)(=O)=O)nc1 (single isomer, unassigned) [Example 138, 3-(4-fluoro-1-((6-(methylsulfonyl)pyridin-3-yl)methyl)-benzimidazol-2-yl)-4-methyl-1,2,5-oxadiazole]"
12,< 0.05 µM,"Cc1nonc1-c1nc2cc(F)cc(F)c2n1Cc1cccnn1 (single isomer, unassigned) [Example 146, 3-(5,7-difluoro-1-(pyridazin-3-ylmethyl)-benzimidazol-2-yl)-4-methyl-1,2,5-oxadiazole]"
13,< 0.2 µM,"COc1ccc(Cn2c(-c3nonc3N)nc3c(F)cccc32)nn1 (single isomer, unassigned) [Example 153, 4-(4-fluoro-1-((6-methoxypyridazin-3-yl)methyl)-benzimidazol-2-yl)-1,2,5-oxadiazol-3-amine]"

# Second part, the compound before the results:
row,SMILES,IC50
1,"Nc1nonc1-c1nc2cc(F)ccc2n1Cc1cncnc1 (single isomer, unassigned) [Example 5, 4-[5-fluoro-1-(pyrimidin-5-ylmethyl)benzimidazol-2-yl]-1,2,5-oxadiazol-3-amine]",< 0.1 µM
2,"N#Cc1ncc(Cn2c(-c3nonc3N)nc3cccc(F)c32)cn1 (single isomer, unassigned) [Example 25, 5-[[2-(4-amino-1,2,5-oxadiazol-3-yl)-7-fluoro-benzimidazol-1-yl]methyl]pyrimidine-2-carbonitrile]",< 0.05 µM
3,"N#Cc1ncc(Cn2c(-c3nonc3N)nc3c(F)cccc32)cn1 (single isomer, unassigned) [Example 26, 5-[[2-(4-amino-1,2,5-oxadiazol-3-yl)-4-fluoro-benzimidazol-1-yl]methyl]pyrimidine-2-carbonitrile]",< 0.1 µM
4,"[2H]C([2H])(c1cccnc1)n1c(-c2nonc2C)nc2cccc(F)c21 (single isomer, unassigned) [Example 31, 3-[1-[dideuterio(pyridin-3-yl)methyl]-7-fluoro-benzimidazol-2-yl]-4-methyl-1,2,5-oxadiazole]",< 0.05 µM
5,"Cc1nonc1-c1nc2c(Cl)cccc2n1Cc1ccc(C#N)nc1 (single isomer, unassigned) [Example 61, 5-[[4-chloro-2-(4-methyl-1,2,5-oxadiazol-3-yl)benzimidazol-1-yl]methyl]pyridine-2-carbonitrile]",< 0.2 µM
6,"Cc1nonc1-c1nc2cccc(Cl)c2n1Cc1ccc(C#N)nc1 (single isomer, unassigned) [Example 62, 5-[[7-chloro-2-(4-methyl-1,2,5-oxadiazol-3-yl)benzimidazol-1-yl]methyl]pyridine-2-carbonitrile]",< 0.2 µM
7,"Nc1nonc1-c1nc2cc(F)ccc2n1Cc1cccnc1 (single isomer, unassigned) [Example 119, 4-[5-fluoro-1-(pyridin-3-ylmethyl)benzimidazol-2-yl]-1,2,5-oxadiazol-3-amine]",< 0.05 µM
8,"Cc1nonc1-c1nc2cccc(F)c2n1Cc1cccnc1 (single isomer, unassigned) [Example 122, 3-[7-fluoro-1-(pyridin-3-ylmethyl)benzimidazol-2-yl]-4-methyl-1,2,5-oxadiazole]",< 0.05 µM
9,"Cc1nonc1-c1nc2c(F)cccc2n1Cc1cccnc1 (single isomer, unassigned) [Example 123, 3-[4-fluoro-1-(pyridin-3-ylmethyl)benzimidazol-2-yl]-4-methyl-1,2,5-oxadiazole]",< 0.05 µM
10,"Cc1snnc1-c1nc2cccc(F)c2n1Cc1cccnc1 (single isomer, unassigned) [Example 128, 4-[7-fluoro-1-(pyridin-3-ylmethyl)benzimidazol-2-yl]-5-methyl-1,2,3-thiadiazole]",< 0.1 µM
11,"Cc1snnc1-c1nc2c(F)cccc2n1Cc1cccnc1 (single isomer, unassigned) [Example 129, 4-[4-fluoro-1-(pyridin-3-ylmethyl)benzimidazol-2-yl]-5-methyl-1,2,3-thiadiazole]",< 0.1 µM
12,"Nc1nonc1-c1nc2cccc(F)c2n1Cc1ccnnc1 (single isomer, unassigned) [Example 132, 4-(7-fluoro-1-(pyridazin-4-ylmethyl)-benzimidazol-2-yl)-1,2,5-oxadiazol-3-amine]",< 0.05 µM
13,"Nc1nonc1-c1nc2cccc(F)c2n1Cc1ccncn1 (single isomer, unassigned) [Example 134, 4-(7-fluoro-1-(pyrimidin-4-ylmethyl)-benzimidazol-2-yl)-1,2,5-oxadiazol-3-amine]",< 0.05 µM
14,"Cc1nonc1-c1nc2cccc(F)c2n1Cc1ccc(S(C)(=O)=O)nc1 (single isomer, unassigned) [Example 137, 3-(7-fluoro-1-((6-(methylsulfonyl)pyridin-3-yl)methyl)-benzimidazol-2-yl)-4-methyl-1,2,5-oxadiazole]",< 0.5 µM
15,"Cc1nonc1-c1nc2c(F)cc(F)cc2n1Cc1cccnn1 (single isomer, unassigned) [Example 147, 3-(4,6-difluoro-1-(pyridazin-3-ylmethyl)-benzimidazol-2-yl)-4-methyl-1,2,5-oxadiazole]",< 0.2 µM
16,"Nc1nonc1-c1nc2cccc(F)c2n1Cc1ccc(Cl)nn1 (single isomer, unassigned) [Example 148, 4-(1-((6-chloropyridazin-3-yl)methyl)-7-fluoro-benzimidazol-2-yl)-1,2,5-oxadiazol-3-amine]",< 0.05 µM
17,"Nc1nonc1-c1nc2c(F)cccc2n1Cc1ccc(Cl)nn1 (single isomer, unassigned) [Example 149, 4-(1-((6-chloropyridazin-3-yl)methyl)-4-fluoro-benzimidazol-2-yl)-1,2,5-oxadiazol-3-amine]",< 0.1 µM
18,"COc1ccc(Cn2c(-c3nonc3N)nc3cccc(F)c32)nn1 (single isomer, unassigned) [Example 152, 4-(7-fluoro-1-((6-methoxypyridazin-3-yl)methyl)-benzimidazol-2-yl)-1,2,5-oxadiazol-3-amine]",< 0.05 µM
19,"Nc1nsnc1-c1nc2cccc(F)c2n1Cc1cccnn1 (single isomer, unassigned) [Example 156, 4-(7-fluoro-1-(pyridazin-3-ylmethyl)-benzimidazol-2-yl)-1,2,5-thiadiazol-3-amine]",< 0.05 µM
